Source: patent US20260258003A1, “SLACK-ACTIVATING COMPOUNDS AND THEIR MEDICAL USE” (Johann Wolfgang Goethe-Universität Frankfurt am Main, priority 2023, published 2026)

What was measured:
[1] = biological target: T1, cannabinoid receptor 1 (CB1) (Homo sapiens, UniProt P21554); assay: SafetyScreen44 binding; settings: 10 μM; substantial = higher than 50%
T1 construct: Eurofins SafetyScreen44
Protocol: (§1) Compound enzyme inhibition effect was calculated as a % inhibition of control enzyme activity. […] Measurements were performed in duplicate.

[2] = system: chloroquine-induced scratching behavior of mice; assay: Chloroquine-induced itch model, topical application of creme; type: in vivo; settings: 5% in hydrophilic creme (Basiscreme DAC), topical 30 min prior to s.c. chloroquine
Protocol: (§2) Animals: Experiments were performed in 8-16 week-old C57BL/6N mice (Charles River, Sulzfeld, Germany) of either sex. The animals were housed under a 12 h light/dark cycle with access to food and water ad libitum. All experiments adhered to the Animal Research: Reporting on In Vivo Experiments (ARRIVE) guidelines and were approved by and conducted in accordance with the regulations of the local Animal Welfare authorities (Regierungspräsidium Darmstadt, Germany; approval number V54-19c20/15-FR/2011). All behavioral studies were conducted during the light cycle of the day at room temperature (20-24° C.) by an observer blinded for the treatment of the animals.
Drug formulation: A creme formulation of Compound 6 and Compound 21 was prepared by mixing a hydrophilic creme (Basiscreme DAC) with 5% of each Slack activator.
Behavioral assessment: Three to four days before the day of the experiment, the fur on the dorsolateral aspect of the neck was shaved under brief isoflurane anesthesia. On the testing day, Compound 6 creme, Compound 21 creme, or creme vehicle were applied topically on the shaved region of the neck under brief isoflurane anesthesia and the mice were habituated to a Plexiglas cylinder (30 cm in diameter) for 30 min immediately thereafter. […] The number of scratching bouts directed towards the nape of the neck was assessed over 30 min by videotaping.

[3] = system: histamine-induced scratching of mice; assay: Histamine-induced acute itch model; type: in vivo; settings: i.p.
Protocol: Further studies were conducted to assess the in vivo efficacy of Compound 6 and Compound 10 in mice. In detail, experiments were performed in 8 to 16 weeks old C57BL/6N mice (Charles River, Sulzfeld, Germany) and animals with a genetic deletion of Slack (Slack^−/− mice^27) of either sex. Animals were housed on a 12 h light/dark cycle with access to food and water ad libitum. All experiments adhered to the guidelines of the International Association for the Study of Pain and to the ARRIVE (Animal Research: Reporting on In Vivo Experiments) guidelines, and were approved by and conducted in accordance with the regulations of the local Animal Welfare authorities (Regierungspräsidium Darmstadt, Germany). All behavioral studies were conducted during the light cycle of the day at room temperature (20-24° C.) by an observer blinded for the treatment of the animals and/or their genotype.
Acute itch behavior of the mice was monitored using a histamine-based, chloroquine-based and SLIGRL-based acute itch behavior model. In these models, three to four days before the experiment day, the fur on the dorsolateral aspect of the neck was shaved under brief isoflurane anesthesia. On the testing day, mice were habituated for 30 min in separate plexiglass cylinders (30 cm diameter). […] Numbers of scratching bouts directed to the nape of the neck were assessed over 30 min by videotaping.

[4] = biological target: T2, short form of dopamine receptor D2 (D2S) (Homo sapiens, UniProt P14416); assay: SafetyScreen44 binding; settings: 10 μM; substantial = higher than 50%
T2 construct: Eurofins SafetyScreen44
T2 sequence (P14416 1-414 isoform P14416-2): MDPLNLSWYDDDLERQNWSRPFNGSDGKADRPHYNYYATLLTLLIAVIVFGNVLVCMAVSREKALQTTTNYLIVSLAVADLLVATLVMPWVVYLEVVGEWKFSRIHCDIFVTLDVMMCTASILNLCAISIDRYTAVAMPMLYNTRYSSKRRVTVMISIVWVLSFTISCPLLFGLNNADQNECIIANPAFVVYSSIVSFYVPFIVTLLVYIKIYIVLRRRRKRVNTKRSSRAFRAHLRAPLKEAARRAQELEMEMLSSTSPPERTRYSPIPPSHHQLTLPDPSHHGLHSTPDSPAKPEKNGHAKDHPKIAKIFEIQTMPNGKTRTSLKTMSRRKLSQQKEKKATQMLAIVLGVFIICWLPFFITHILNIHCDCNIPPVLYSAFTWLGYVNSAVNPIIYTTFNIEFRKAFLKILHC
Protocol: as §1

[5] = system: CFA-induced paw hypersensitivity of mice; assay: CFA-induced inflammatory pain model; type: in vivo; settings: 10 mg/kg i.p. 24 h after CFA; 0.5 h and 1 h after administration
Protocol: as §2, with “animals and/or their genotype.” for “animals.”
Behavioral assessment: Mechanical sensitivity of a hindpaw was assessed using a dynamic plantar aesthesiometer (Ugo Basile, Comerio, VA, Italy). Animals were placed on a wire mesh grid and habituated to the apparatus chamber for 1 h. […] The paw withdrawal latency was recorded automatically and calculated as the average of 6-8 measurements. […] Mechanical sensitivity was again determined 24 h after the CFA injection. Immediately thereafter, drug or vehicle (10% cyclodextrine in 0.9% NaCl) were intraperitoneally administered and the mechanical sensitivity was determined over 3 h. […]

[6] = system: heart rate and breath rate of mice; assay: Pulse oximetry on conscious, freely moving mice; type: in vivo; settings: 10 mg/kg i.p., observation period of 30 min
Protocol: Finally, potential side effects of Compound 6 were assessed by measuring cardiovascular functions by pulse oximetry.

[7] = system: SLIGRL-induced scratching behavior of mice; assay: SLIGRL-induced acute itch model; type: in vivo; settings: 10 mg/kg i.p.
Protocol: Further studies were conducted to assess the in vivo efficacy of Compound 6 and Compound 10 in mice. In detail, experiments were performed in 8 to 16 weeks old C57BL/6N mice (Charles River, Sulzfeld, Germany) and animals with a genetic deletion of Slack (Slack^−/− mice^27) of either sex. Animals were housed on a 12 h light/dark cycle with access to food and water ad libitum. […]
Acute itch behavior of the mice was monitored using a histamine-based, chloroquine-based and SLIGRL-based acute itch behavior model. […] Numbers of scratching bouts directed to the nape of the neck were assessed over 30 min by videotaping.
Antipruritic efficacy of Compound 6 in histamine-independent itch evoked by SLIGRL injection: The chloroquine-induced scratching in mice is driven by activation of MrgprA3 in the NP2 population of sensory neurons^4,29. To further explore the antipruritic efficacy of Compound 6 in histamine-independent itch, the inventors assessed the behavioral response after s.c. injection of the peptide Ser-Leu-Ile-Gly-Arg-Leu (SLIGRL) that evokes scratching by activation of MrgprC11 (ref^30), which is expressed in the NP2 and NP3 population^4. […]

T1 sequence (P21554 whole entry): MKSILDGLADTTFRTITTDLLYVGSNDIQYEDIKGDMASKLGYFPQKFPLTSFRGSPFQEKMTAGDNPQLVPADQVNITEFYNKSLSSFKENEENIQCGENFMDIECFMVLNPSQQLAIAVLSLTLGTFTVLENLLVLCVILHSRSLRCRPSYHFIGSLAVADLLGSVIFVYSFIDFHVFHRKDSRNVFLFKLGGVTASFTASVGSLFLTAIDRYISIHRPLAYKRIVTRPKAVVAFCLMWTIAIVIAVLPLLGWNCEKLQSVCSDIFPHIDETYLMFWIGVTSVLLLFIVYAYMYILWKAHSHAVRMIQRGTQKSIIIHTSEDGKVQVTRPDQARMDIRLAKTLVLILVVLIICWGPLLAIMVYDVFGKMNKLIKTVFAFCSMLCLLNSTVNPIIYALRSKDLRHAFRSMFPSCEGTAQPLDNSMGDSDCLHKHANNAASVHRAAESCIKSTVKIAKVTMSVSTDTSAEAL

Structure (SMILES) | binding inhibition, CB1 [1] | chloroquine-induced scratching behavior after topical application [2] | scratching evoked by s.c. histamine [3] | binding inhibition, D2S [4] | paw withdrawal latencies compared to vehicle-treated animals [5] | breath rate [6] | heart rate [6] | SLIGRL-induced scratching behavior [7]
O=c1nc(CN2CCN(C3=Nc4ccccc4Oc4ccc(Cl)cc43)CC2)[nH][nH]1 [Compound 10, 5-((4-(2-Chlorodibenzo[b,f][1,4]oxazepin-11-yl)piperazin-1-yl)methyl)-1,2-dihydro-3H-1,2,4-triazol-3-one] | substantial binding inhibition | – | – | – | – | – | – | –
O=C(O)COCCN1CCN(C2=Nc3ccccc3Oc3ccc(Cl)cc32)CC1 [Compound 6, 2-(2-(4-(2-Chlorodibenzo[b,f][1,4]oxazepin-11-yl)piperazin-1-yl)ethoxy) acetic acid] | – | significantly ameliorated scratching behavior | not affected | substantial binding | significantly increased | did neither affect | did neither affect | significantly inhibited
